According to US10626095B2, “Cyanotriazole compounds” (OTSUKA PHARMACEUTICAL CO., LTD., priority 2013, dated 2020):

Tests used:
[1] = tested on: Zucker Diabetic Fatty (ZDF) rat; assay: Meal load test in type 2 diabetic model rats (postprandial blood glucose); assay type: in vivo; design: unit not given here; conditions: ZDF rats fasted overnight, oral 10 mg/kg in 5% Arabia gum, blood glucose one hour after meal loading (50 kcal/kg)
How it was run: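 Overnight-fasted (17 h) ZDF rats, n=6 per group, given compound at 10 or 30 mg/kg orally in 5% Arabia gum 2 h before or just before a 50 kcal/kg AIN-93G meal load. Blood glucose at 1 h; effect expressed as BG1h difference from vehicle.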

[2] = tested on: NaCT-CHO (CHO cells stably expressing human NaCT); assay: Assay of the citric acid cycle activation ([1,5-14C]-citric acid, diffusion of [14C]-CO2); assay type: cell-based; conditions: 1 hour incubation at 37° C. with [1,5-14C]-citric acid
How it was run: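 NaCT-CHO cells (pME-CHO empty-vector cells for non-specific counts) were incubated 1 h at 37 °C in Na+-containing HEPES-Tris pH 7.4 with compound plus an equal volume of 0.4 mM [1,5-14C]-citric acid solution. Residual cell radioactivity was counted, [14C]-CO2 diffusion was taken as (Total−R)/(Total−NS)×100%, and EC50 was derived by regression.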

melting point	SMILES	BG1h (BG1h difference between compound group and vehicle group) [1]	EC50 [2]
189 to 192 °C	N#Cc1[nH]nnc1-c1cccc(/C=C/c2ccc(F)cc2C(F)(F)F)c1 [Example 600, 5-{3-[(E)-2-(4-fluoro-2-trifluoromethyl-phenyl)-vinyl]-phenyl}-3H-[1,2,3]triazole-4-carbonitrile]	−74.0	430 nM
194 to 196 °C	Cc1cc(/C=C/c2cccc(-c3nn[nH]c3C#N)c2)ccc1F [Example 607, 5-{3-[(E)-2-(4-fluoro-3-methyl-phenyl)-vinyl]-phenyl}-3H-[1,2,3]triazole-4-carbonitrile]	−106.8	450 nM
–	N#Cc1[nH]nnc1-c1cc(/C=C/c2ccc(F)cc2F)cc(C(F)(F)F)c1 [Example 645, 5-{3-[(E)-2-(2,4-difluoro-phenyl)-vinyl]-5-trifluoromethyl-phenyl}-3H-[1,2,3]triazole-4-carbonitrile]	−121.6	1090 nM
–	N#Cc1[nH]nnc1-c1cccc(/C=C/c2ccc(F)cc2F)c1 [Example 646, 5-{3-[(E)-2-(2,4-difluoro-phenyl)-vinyl]-phenyl}-3H-[1,2,3]triazole-4-carbonitrile]	−89.3	620 nM
–	N#Cc1[nH]nnc1-c1cc(Cl)cc(/C=C/c2cccc(OC(F)(F)F)c2)c1 [Example 649, 5-{3-chloro-5-[(E)-2-(3-trifluoromethoxy-phenyl)-vinyl]-phenyl}-3H-[1,2,3]triazole-4-carbonitrile]	−99.4	2470 nM
–	COc1cc(/C=C/c2cccc(C(F)(F)F)c2)cc(-c2nn[nH]c2C#N)c1 [Example 657, 5-{3-methoxy-5-[(E)-2-(3-trifluoromethyl-phenyl)-vinyl]-phenyl}-3H-[1,2,3]triazole-4-carbonitrile]	−120.5	1160 nM
–	N#Cc1[nH]nnc1-c1cccc(/C=C/c2cc(F)cc(C(F)(F)F)c2)c1 [Example 659, 5-{3-[(E)-2-(3-fluoro-5-trifluoromethyl-phenyl)-vinyl]-phenyl}-3H-[1,2,3]triazole-4-carbonitrile]	−161.2	810 nM
–	N#Cc1[nH]nnc1-c1cccc(/C=C/c2ccc(F)c(C(F)(F)F)c2)c1 [Example 663, 5-{3-[(E)-2-(4-fluoro-3-trifluoromethyl-phenyl)-vinyl]-phenyl}-3H-[1,2,3]triazole-4-carbonitrile]	−149.5	1250 nM
231 to 233 °C	N#Cc1[nH]nnc1-c1cc(Cl)cc(-c2cc3ccccc3s2)c1 [Example 718, 5-(3-benzo[b]thiophen-2-yl-5-chloro-phenyl)-3H-[1,2,3]triazole-4-carbonitrile]	−147.5	1510 nM
–	N#Cc1[nH]nnc1-c1cccc(-c2cc(C(F)(F)F)ccn2)c1 [Example 790, 5-[3-(4-trifluoromethyl-pyridin-2-yl)-phenyl]-3H-[1,2,3]triazole-4-carbonitrile]	−61.5	980 nM
–	Cc1cc(-c2ccc(C(F)(F)F)cn2)cc(-c2nn[nH]c2C#N)c1 [Example 807, 5-[3-methyl-5-(5-trifluoromethyl-pyridin-2-yl)-phenyl]-3H-[1,2,3]triazole-4-carbonitrile]	−94.5	1100 nM
–	N#Cc1[nH]nnc1-c1cccc(-c2ccc3c(c2)OC(F)(F)O3)c1 [Example 931, 5-[3-(2,2-difluoro-benzo[1,3]dioxol-5-yl)-phenyl]-3H-[1,2,3]triazole-4-carbonitrile]	−76.4	690 nM
–	N#Cc1[nH]nnc1-c1cc(OC(F)(F)F)cc(-c2ccc3c(c2)OC(F)(F)O3)c1 [Example 934, 5-[3-(2,2-difluoro-benzo[1,3]dioxol-5-yl)-5-trifluoromethoxy-phenyl]-3H-[1,2,3]triazole-4-carbonitrile]	−87.2	510 nM
–	CCOc1cc(-c2nccc(C(F)(F)F)n2)cc(-c2nn[nH]c2C#N)c1 [Example 944, 5-[3-ethoxy-5-(4-trifluoromethyl-pyrimidin-2-yl)-phenyl]-38-[1,2,3]triazole-4-carbonitrile]	−125.1	1010 nM
214 to 218 °C	Cc1cc(-c2nn[nH]c2C#N)ccc1-c1nccc(C(F)(F)F)n1 [Example 989, 5-[3-methyl-4-(4-trifluoromethyl-pyrimidin-2-yl)-phenyl]-3H-[1,2,3]triazole-4-carbonitrile]	−116.0	800 nM
–	N#Cc1[nH]nnc1-c1cccc(/C=C/c2cc3ccccc3s2)c1 [Example 1004, 5-[3-((E)-2-benzo[b]thiophen-2-yl-vinyl)-phenyl]-3H-[1,2,3]triazole-4-carbonitrile]	−89.8	1800 nM
–	N#Cc1[nH]nnc1-c1cccc(/C=C/c2ccc3c(c2)OC(F)(F)O3)c1 [Example 1017, 5-{3-[(E)-2-(2,2-difluoro-benzo[1,3]dioxol-5-yl)-vinyl]-phenyl}-3H-[1,2,3]triazole-4-carbonitrile]	−124.6	1000 nM
–	N#Cc1[nH]nnc1-c1cccc(/C=C/c2cccc(C(F)(F)F)n2)c1 [Example 1018, 5-{3-[(E)-2-(6-trifluoromethyl-pyridin-2-yl)-vinyl]-phenyl}-3H-[1,2,3]triazole-4-carbonitrile]	−59.2	1170 nM
–	CCc1sc(-c2ccc(Cl)cc2F)nc1-c1nn[nH]c1C#N [Example 1248, 5-[2-(4-chloro-2-fluoro-phenyl)-5-ethyl-thiazol-4-yl]-3H-[1,2,3]triazole-4-carbonitrile]	−82.2	3050 nM
–	N#Cc1[nH]nnc1-c1ccc(/C=C/c2ccc(F)cc2)o1 [Example 1505, 5-{5-[(E)-2-(4-fluoro-phenyl)-vinyl]-furan-2-yl}-3H-[1,2,3]triazole-4-carbonitrile]	−123.5	420 nM
230 to 233 °C	N#Cc1[nH]nnc1-c1cccc(-c2cc3ccccc3o2)n1 [Example 1573, 5-(6-(benzofuran-2-yl)-pyridin-2-yl)-3H-[1,2,3]triazole-4-carbonitrile]	−132.7	1030 nM
–	N#Cc1[nH]nnc1-c1cc(N2CCCCC2)nc(-c2ccccc2)n1 [Example 1672, 5-(2-phenyl-6-(piperidin-1-yl)-pyrimidin-4-yl)-3H-[1,2,3]triazole-4-carbonitrile]	−94.8	1290 nM
–	N#Cc1[nH]nnc1-c1cc(N2CCCC2)nc(-c2ccccc2)n1 [Example 1676, 5-(2-phenyl-6-(pyrrolidin-1-yl)-pyrimidin-4-yl)-3H-[1,2,3]triazole-4-carbonitrile]	−49.5	2220 nM
